{
  "source": "patent US9668497B2",
  "about": "“Flavor-enhancing compounds” (INTERNATIONAL FLAVORS & FRAGRANCES INC., priority 2015, dated 2017)",
  "key": {"[1]": {"test": "Sensory description of Formula I alone in water", "assay_type": "in vivo", "details": "20 ppm in water"}, "[2]": {"test": "Cooling enhancement in various cooling compounds (summary of Example VII)", "assay_type": "in vivo", "details": "WS-5, WS-23, menthyl lactate, WS-3, Cooler 2; table footnote", "protocol": "(§1) The cooling enhancement of Formula I and Na-Formula I in cooling compounds including WS-5 (30 ppm), WS-23 (35 ppm), menthyl lactate (35 ppm), WS-3 (30 ppm) and Cooler 2 (10 ppm) was also evaluated."}, "[3]": {"test": "Cooling enhancement in WS-23 (35 ppm)", "assay_type": "in vivo", "protocol": "as §1"}, "[4]": {"test": "Cooling enhancement in WS-3 (30 ppm)", "assay_type": "in vivo", "protocol": "as §1"}, "[5]": {"test": "Cooling enhancement in menthol (35 ppm), trained sensory panel", "assay_type": "in vivo", "protocol": "The flavor compositions of menthol (35 ppm) combined with 7,8-dihydroxy-2-phenyl-4H-chromen-4-one (Formula I) at different concentrations were evaluated by a trained sensory panel. Sensory results are reported in the following. […]"}, "[6]": {"test": "Cooling enhancement in Cooler 2 (10 ppm)", "assay_type": "in vivo", "protocol": "as §1"}, "[7]": {"test": "Cooling enhancement in menthyl lactate (35 ppm)", "assay_type": "in vivo", "protocol": "as §1"}, "[8]": {"test": "Cooling enhancement in WS-5 (30 ppm)", "assay_type": "in vivo", "protocol": "as §1"}, "[9]": {"test": "Solubility in aqueous solutions", "assay_type": "physicochemical"}},
  "data": [
    {"smiles": "O=c1cc(-c2ccccc2)oc2c(O)c(O)ccc12", "note": "[Formula I, 7,8-dihydroxy-2-phenyl-4H-chromen-4-one]", "values": [
      {"measurement": "Cooling property", "setting": "[1]", "value": "no cooling property"},
      {"measurement": "Cooling enhancement, overall statement", "setting": "[2]", "value": "Formula I and Na-Formula I enhanced the cooling sensation of various cooling compounds."},
      {"measurement": "Evaluation on the Cooling Enhancement", "setting": "[3]; test substance 1 ppm", "value": "Marginal"},
      {"measurement": "Evaluation on the Cooling Enhancement", "setting": "[3]; test substance 2 ppm", "value": "Marginal"},
      {"measurement": "Evaluation on the Cooling Enhancement", "setting": "[3]; test substance 5 ppm", "value": "Marginal"},
      {"measurement": "Evaluation on the Cooling Enhancement", "setting": "[3]; test substance 10 ppm", "value": "~10", "unit": "% enhancement"},
      {"measurement": "Evaluation on the Cooling Enhancement", "setting": "[3]; test substance 20 ppm", "value": "~20", "unit": "% enhancement"},
      {"measurement": "Evaluation on the Cooling Enhancement", "setting": "[3]; test substance 30 ppm", "value": "~20% enhancement,"},
      {"measurement": "Evaluation on the Cooling Enhancement", "setting": "[3]; test substance 40 ppm", "value": "Enhancement,"},
      {"measurement": "Evaluation on the Cooling Enhancement", "setting": "[3]; test substance 50 ppm", "value": "Enhancement,"},
      {"measurement": "Evaluation on the Cooling Enhancement", "setting": "[3]; test substance 100 ppm", "value": "Enhancement,"},
      {"measurement": "Evaluation on the Cooling Enhancement", "setting": "[4]; test substance 1 ppm", "value": "Marginal"},
      {"measurement": "Evaluation on the Cooling Enhancement", "setting": "[4]; test substance 2 ppm", "value": "Marginal"},
      {"measurement": "Evaluation on the Cooling Enhancement", "setting": "[4]; test substance 5 ppm", "value": "Marginal"},
      {"measurement": "Evaluation on the Cooling Enhancement", "setting": "[4]; test substance 10 ppm", "value": "~15", "unit": "% enhancement"},
      {"measurement": "Evaluation on the Cooling Enhancement", "setting": "[4]; test substance 20 ppm", "value": "~20", "unit": "% enhancement"},
      {"measurement": "Evaluation on the Cooling Enhancement", "setting": "[4]; test substance 30 ppm", "value": "~20% enhancement,"},
      {"measurement": "Evaluation on the Cooling Enhancement", "setting": "[4]; test substance 40 ppm", "value": "Enhancement,"},
      {"measurement": "Evaluation on the Cooling Enhancement", "setting": "[4]; test substance 50 ppm", "value": "Enhancement,"},
      {"measurement": "Evaluation on the Cooling Enhancement", "setting": "[4]; test substance 100 ppm", "value": "Enhancement,"},
      {"measurement": "Cooling enhancement, overall statement", "setting": "[5]; menthol 35 ppm, table footnote", "value": "Formula I enhanced the cooling sensation of menthol."},
      {"measurement": "Flavor Profile: cooling enhancement", "setting": "[5]; menthol 35 ppm, test substance 1 ppm", "value": "Marginal cooling enhancement"},
      {"measurement": "Flavor Profile: cooling enhancement", "setting": "[5]; menthol 35 ppm, test substance 2 ppm", "value": "Marginal cooling enhancement"},
      {"measurement": "Flavor Profile: cooling enhancement", "setting": "[5]; menthol 35 ppm, test substance 5 ppm", "value": "Marginal cooling enhancement"},
      {"measurement": "Flavor Profile: cooling enhancement", "setting": "[5]; menthol 35 ppm, test substance 10 ppm", "value": "~10", "unit": "% cooling enhancement"},
      {"measurement": "Flavor Profile: cooling enhancement", "setting": "[5]; menthol 35 ppm, test substance 20 ppm", "value": "~20% cooling enhancement,"},
      {"measurement": "Flavor Profile: cooling enhancement", "setting": "[5]; menthol 35 ppm, test substance 30 ppm", "value": "~20% cooling enhancement, slight"},
      {"measurement": "Flavor Profile: cooling enhancement", "setting": "[5]; menthol 35 ppm, test substance 40 ppm", "value": "Cooling enhancement, reduced"},
      {"measurement": "Flavor Profile: cooling enhancement", "setting": "[5]; menthol 35 ppm, test substance 50 ppm", "value": "Cooling enhancement, harsh"},
      {"measurement": "Flavor Profile: cooling enhancement", "setting": "[5]; menthol 35 ppm, test substance 100 ppm", "value": "Cooling enhancement, harsh"},
      {"measurement": "Evaluation on the Cooling Enhancement", "setting": "[6]; test substance 1 ppm", "value": "Marginal"},
      {"measurement": "Evaluation on the Cooling Enhancement", "setting": "[6]; test substance 2 ppm", "value": "Marginal"},
      {"measurement": "Evaluation on the Cooling Enhancement", "setting": "[6]; test substance 5 ppm", "value": "Marginal"},
      {"measurement": "Evaluation on the Cooling Enhancement", "setting": "[6]; test substance 10 ppm", "value": "~10", "unit": "% enhancement"},
      {"measurement": "Evaluation on the Cooling Enhancement", "setting": "[6]; test substance 20 ppm", "value": "~10", "unit": "% enhancement"},
      {"measurement": "Evaluation on the Cooling Enhancement", "setting": "[6]; test substance 30 ppm", "value": "~20% enhancement,"},
      {"measurement": "Evaluation on the Cooling Enhancement", "setting": "[6]; test substance 40 ppm", "value": "Enhancement,"},
      {"measurement": "Evaluation on the Cooling Enhancement", "setting": "[6]; test substance 50 ppm", "value": "Enhancement,"},
      {"measurement": "Evaluation on the Cooling Enhancement", "setting": "[6]; test substance 100 ppm", "value": "Enhancement,"},
      {"measurement": "Evaluation on the Cooling Enhancement", "setting": "[7]; test substance 1 ppm", "value": "Marginal"},
      {"measurement": "Evaluation on the Cooling Enhancement", "setting": "[7]; test substance 2 ppm", "value": "Marginal"},
      {"measurement": "Evaluation on the Cooling Enhancement", "setting": "[7]; test substance 5 ppm", "value": "Marginal"},
      {"measurement": "Evaluation on the Cooling Enhancement", "setting": "[7]; test substance 10 ppm", "value": "~10", "unit": "% enhancement"},
      {"measurement": "Evaluation on the Cooling Enhancement", "setting": "[7]; test substance 20 ppm", "value": "~20", "unit": "% enhancement"},
      {"measurement": "Evaluation on the Cooling Enhancement", "setting": "[7]; test substance 30 ppm", "value": "~20% enhancement,"},
      {"measurement": "Evaluation on the Cooling Enhancement", "setting": "[7]; test substance 40 ppm", "value": "Enhancement,"},
      {"measurement": "Evaluation on the Cooling Enhancement", "setting": "[7]; test substance 50 ppm", "value": "Enhancement,"},
      {"measurement": "Evaluation on the Cooling Enhancement", "setting": "[7]; test substance 100 ppm", "value": "Enhancement,"},
      {"measurement": "Evaluation on the Cooling Enhancement", "setting": "[8]; test substance 1 ppm", "value": "Marginal"},
      {"measurement": "Evaluation on the Cooling Enhancement", "setting": "[8]; test substance 2 ppm", "value": "Marginal"},
      {"measurement": "Evaluation on the Cooling Enhancement", "setting": "[8]; test substance 5 ppm", "value": "Marginal"},
      {"measurement": "Evaluation on the Cooling Enhancement", "setting": "[8]; test substance 10 ppm", "value": "~15", "unit": "% enhancement"},
      {"measurement": "Evaluation on the Cooling Enhancement", "setting": "[8]; test substance 20 ppm", "value": "~20", "unit": "% enhancement"},
      {"measurement": "Evaluation on the Cooling Enhancement", "setting": "[8]; test substance 30 ppm", "value": "~20% enhancement,"},
      {"measurement": "Evaluation on the Cooling Enhancement", "setting": "[8]; test substance 40 ppm", "value": "Enhancement,"},
      {"measurement": "Evaluation on the Cooling Enhancement", "setting": "[8]; test substance 50 ppm", "value": "Enhancement,"},
      {"measurement": "Evaluation on the Cooling Enhancement", "setting": "[8]; test substance 100 ppm", "value": "Enhancement,"},
      {"measurement": "Solubility in aqueous solutions", "setting": "[9]", "value": "sparingly soluble"}
    ]},
    {"smiles": "CC1CCC(C(C)C)C(O)C1", "note": "(centres unmarked) [Menthol, menthol, reference compound]", "values": [
      {"measurement": "Flavor Profile", "setting": "[5]; menthol 35 ppm alone, 0 ppm enhancer", "value": "Cooling sensation"}
    ]}
  ]
}
